The values below come from patent publication US20210300962A1, “LIPID PRODRUGS OF PREGNANE NEU[…] USES THEREOF” (PureTech LYT, Inc., priority 2018, published 2021).

For data set [1] the following is noted: background statement; cited from earlier work.
The subject of data set [2] is porcine pancreatic lipase. In words: In vitro hydrolysis of prodrugs by incubation with porcine pancreatic lipase. It is filed as in vitro ADME. The settings on record: 37° C.; for hydrolysis of prodrug to its monoglyceride form: simulated intestinal micellar solution, 0-180 min. On the procedure:
To provide for higher throughput of experiments, unless otherwise stated, in vitro hydrolysis of compounds will generally be performed via incubation with porcine pancreatic lipase. This provides a more reproducible source of pancreatic enzymes, facilitates enhanced experimental throughput, and is also a greater challenge than collected rat enzymes (since enzyme activity in rat intestinal fluid is low). Briefly, pancreatic lipase solution was prepared prior to the hydrolysis experiment by dispersion of 1 g porcine pancreatin in 5 ml of lipolysis buffer and 16.9 μL of 0.5 M NaOH. The suspension was mixed well and centrifuged at 3500 rpm for 15 minutes at 5° C. to provide a supernatant. An amount of 1000 mL of lipolysis buffer was prepared with 0.474 g of tris-maleate (2 mM), 0.206 g of CaCl2.H2O (1.4 mM) and 8.775 g of NaCl (150 mM) adjusted with NaOH to pH 6.5. To assess the potential for prodrug hydrolysis in the intestine, 20 μL of prodrug solution (1 mg/mL dissolved in acetonitrile), 900 μL of simulated intestinal micellar solution [prepared with 0.783 g of NaTDC (3 mM) and 0.291 g of phosphatidylcholine (0.75 mM) in 500 mL lipolysis buffer] and 100 μL of enzyme solution were incubated at 37° C. 20 μL samples of the incubation solution were taken at 0, 5, 10, 15, 30, 60, 90, 120 and 180 minutes post incubation and added to 180 μL of MeCN to stop lipolysis. The mixture was vortexed and centrifuged at 5000 rpm for 5 minutes to precipitate proteins prior to analysis. The supernatant was analyzed by HPLC-MS for residual compound concentrations, and the potential products of compound hydrolysis analyzed.
The data for prodrug compounds I-1 and I-2 are shown in FIG. 8 and FIG. 9, respectively. […] The monoglycerides were then converted at different rates to an acid intermediate and/or free parent ALLO. An acid intermediate was not observed for prodrug I-2. The acid intermediate of prodrug I-1 is believed to have the following structure, based on HPLC-MS data: […]

The test system of data set [3] is rat plasma supplemented with lipoprotein lipase (LPL). In words: In vitro hydrolysis of prodrugs in rat plasma supplemented with lipoprotein lipase. It is filed as in vitro ADME. The settings on record: 37° C.; for hydrolysis of prodrug to its monoglyceride form: 0-180 min. On the procedure: (§1) In order to probe the release of free drug from TG prodrugs in the systemic circulation, prodrugs are incubated with plasma (rat, mouse, dog, pig or human) supplemented with lipoprotein lipase (LPL, 200 IU/ml). LPL is a key enzyme required for the hydrolysis of lipoprotein associated TG in the systemic circulation and is therefore expected to be a key contributor to lipolysis of the re-esterified drug-TG construct in plasma, largely via liberation of fatty acids in the sn-1 and the sn-3 position of the TG-mimetic, prior to drug release from the 2′ position via esterase hydrolysis. […] is tethered to the luminal surface of vascular endothelial cells under physiological conditions. In the current in vitro studies, plasma is therefore supplemented with LPL to better reflect the in vivo situation.
(§2) To start hydrolysis, 10 μl of LPL solution (10,000 IU/ml) was added to a mixture of 10 μl of prodrug solution (1 mg/ml dissolved in acetonitrile) and 500 μl of blank plasma. The mixture was incubated at 37° C. Samples (20 μl) of the incubation solution were taken at 0, 5, 15, 30, 60, 90, 120 and 180 minutes post-incubation and added to 180 μl of MeCN to stop lipolysis. The mixture was vortexed and centrifuged at 4500×g for 5 minutes to precipitate proteins prior to analysis. The supernatant was analyzed by HPLC-MS/MS for the potential products (MG form, acid form, and free drug) of prodrug hydrolysis.
(§3) The in vitro hydrolysis profile of selected prodrug compounds was determined in rat, dog, and/or human plasma supplemented with LPL. The data for prodrug compound I-1 in rat and dog plasma are shown in FIG. 10 and FIG. 11, respectively. The data for prodrug compound I-2 in rat, dog, and human plasma are shown in FIG. 12, FIG. 13, and FIG. 14, respectively. […] The monoglycerides were then converted at different rates to an acid intermediate and/or free parent ALLO. An acid intermediate was not observed for prodrug I-2. The acid intermediate of prodrug I-1 is believed to have the following structure, based on HPLC-MS data: […]

Data set [4] deals with dog plasma supplemented with lipoprotein lipase (LPL). In words: In vitro hydrolysis of prodrugs in dog plasma supplemented with lipoprotein lipase. It is filed as in vitro ADME. Particulars: 37° C.; for hydrolysis of prodrug to its monoglyceride form: 0-180 min. On the procedure: as §1, §2, §3
The test system of data set [5] is human plasma supplemented with lipoprotein lipase (LPL). In words: In vitro hydrolysis of prodrugs in human plasma supplemented with lipoprotein lipase. It is filed as in vitro ADME. The settings on record: 37° C. On the procedure:
as §1
To start hydrolysis, 10 μl of LPL solution (10,000 IU/ml) was added to a mixture of 10 μl of prodrug solution (1 mg/ml dissolved in acetonitrile) and 500 μl of blank plasma. The mixture was incubated at 37° C. […] The supernatant was analyzed by HPLC-MS/MS for the potential products (MG form, acid form, and free drug) of prodrug hydrolysis.
The in vitro hydrolysis profile of selected prodrug compounds was determined in rat, dog, and/or human plasma supplemented with LPL. […]

Data set [6] in a line: Rat pharmacokinetic studies: plasma allopregnanolone after oral prodrug or ALLO, and after IV ALLO. It is filed as in vivo, male Sprague-Dawley rats. Particulars: plasma Allo after oral gavage to rats; doses normalized to 2 mg/kg equivalent ALLO; mean±SD (n≥3) or mean±range (n=2). On the procedure:
In order to assess the oral bioavailability of test compounds, pharmacokinetic studies were conducted using the following procedure. The day before drug administration, male Sprague-Dawley rats (240-320 g) were anesthetized and the carotid artery was cannulated. The rats were then allowed to regain consciousness and fasted overnight prior to the commencement of experiments with free access to water. The next morning, formulations containing parent compounds or prodrugs were administered via oral gavage or via the jugular vein cannula, and blood samples were collected from the carotid artery cannula from −5 min up to 24 h post dosing. During the blood sample collection period the rats had free access to water but remained fasted for a further 8 h following drug administration. In these allopregnanolone (ALLO) related studies, the blood samples were centrifuged at 4500×g for 5 min to separate plasma. Plasma samples were stored at −20° C. prior to assay by HPLC-MS-MS. The whole blood or plasma samples were assayed for free drug (i.e. non-glyceride associated drug) and were not hydrolized prior to assay (as was the case with the lymph samples).
FIG. 3 illustrates dose-normalized ALLO plasma concentrations following oral gavage of ALLO related formulations to conscious, carotid artery-cannulated male SD rats. The ALLO oral formulation for each rat contained 2 mg of parent ALLO (i.e., non-prodrug allopregnanolone) suspended in 2 ml of suspending vehicle (0.50 sodium carboxymethyl cellulose, 0.4% Tween 80 and 0.9% NaCl in water). Prodrug formulations for each rat contained 2 mg of the ALLO prodrug dispersed in 40 mg oleic acid, 25 mg Tween 80 and 2 ml PBS. Doses were normalized to a 2 mg/kg equivalent dose of ALLO. Data are shown as mean±SD n≥3 or mean±range when n=2. […] Doses are normalized to a 2 mg/kg equivalent ALLO dose and data are presented as mean±SD when n≥3 or mean±range when n=2.
Also shown (bottom) is the calculated area under the curve (AUC) over 0-24 h for each of the test compounds as a fraction of the IV-administered allpregnanolone control.

SMILES strings stand for the structures.

With `CCCCCCCCCCC(=O)O[C@H]1CC[C@H]2[C@@H]3CCC4=CC(=O)CC[C@]4(C)[C@H]3CC[C@]12C` [testosterone undecanoate], in data set [1], the “bioavailability of testosterone after oral administration of the undecanoate ester” value is listed as < 5%.
As for `CCCCCCCCCCCCCCCC(=O)OCC(COC(=O)CCCCCCCCCCCCCCC)OC(=O)CCCCCCCCC(=O)O[C@@H]1CC[C@@]2(C)[C@@H](CC[C@@H]3[C@@H]2CC[C@]2(C)[C@@H](C(C)=O)CC[C@@H]32)C1` [Compound I-1, 1-((3R,5S,8R,9S,10S,13S,14S,17S)-17-acetyl-10,13-dimethylhexadecahydro-1H-cyclopenta[a]phenanthren-3-yl) 10-(1,3-bis(palmitoyloxy)propan-2-yl) decanedioate], the “hydrolysis of prodrug to its monoglyceride form” value in data set [2], in data set [3] and in data set [4] was “rapidly converted to the prodrug's monoglyceride form” each time.
Regarding `CCCCCCCCCCCCCCCC(=O)OCC(COC(=O)CCCCCCCCCCCCCCC)OC(=O)CC(C)CC(=O)OC(C)OC(=O)O[C@@H]1CC[C@@]2(C)[C@@H](CC[C@@H]3[C@@H]2CC[C@]2(C)[C@@H](C(C)=O)CC[C@@H]32)C1` (stereo partly drawn) [Compound I-2, 1-(1-(((((3R,5S,8R,9S,10S,13S,14S,17S)-17-acetyl-10,13-dimethylhexadecahydro-1H-cyclopenta[a]phenanthren-3-yl)oxy)carbonyl)oxy)ethyl) 5-(1,3-bis(palmitoyloxy)propan-2-yl) 3-methylpentanedioate], the “acid intermediate of hydrolysis” value in data set [2] (HPLC-MS), in data set [3], in data set [4] and in data set [5] was “not observed” each time. Besides, the “hydrolysis of prodrug to its monoglyceride form” value in data set [2], in data set [3], in data set [4] and in data set [5] (0-180 min) was “rapidly converted to the prodrug's monoglyceride form” each time.
Take `CCCCCCCCCCCCCCCC(=O)OCC(COC(=O)CCCCCCCCCCCCCCC)OC(=O)C(C)(C)CCCCCCCC(=O)O[C@@H]1CC[C@@]2(C)[C@@H](CC[C@@H]3[C@@H]2CC[C@]2(C)[C@@H](C(C)=O)CC[C@@H]32)C1` [Compound I-12, 10-((3R,5S,8R,9S,10S,13S,14S,17S)-17-acetyl-10,13-dimethylhexadecahydro-1H-cyclopenta[a]phenanthren-3-yl) 1-(1,3-bis(palmitoyloxy)propan-2-yl) 2,2-dimethyldecanedioate]: the Cmax result in data set [6] is given as “below LOQ)”.
Same read-out and setting: in the case of `CCCCCCCCCCCCCCCC(=O)OCC(COC(=O)CCCCCCCCCCCCCCC)OC(=O)C(C)(C)CCCCCCCCCC(=O)O[C@@H]1CC[C@@]2(C)[C@@H](CC[C@@H]3[C@@H]2CC[C@]2(C)[C@@H](C(C)=O)CC[C@@H]32)C1` [Compound I-13, 12-((3R,5S,8R,9S,10S,13S,14S,17S)-17-acetyl-10,13-dimethylhexadecahydro-1H-cyclopenta[a]phenanthren-3-yl) 1-(1,3-bis(palmitoyloxy)propan-2-yl) 2,2-dimethyldodecanedioate] it was “below LOQ)”.
